In ChEMBL document CHEMBL5393457, “Combined inhibition of amino acid transporters for inhibiting human plasmacytoid dendritic cell activity during autoimmunity” (2022):
Active and inactive are the calls of the source. No cut-off for these calls is given here.

Legend:
[1] = biological target: T1, Cystine/glutamate transporter (Homo sapiens) (UniProt Q9UPY5); assay: Inhibition of XCT in CpG-A-activated human plasmacytoid dendritic cells at 5 uM assessed as decrease in S6 phosphorylation; format: cell-based; details: Plasmacytoid dendritic cell
T1 sequence (whole entry): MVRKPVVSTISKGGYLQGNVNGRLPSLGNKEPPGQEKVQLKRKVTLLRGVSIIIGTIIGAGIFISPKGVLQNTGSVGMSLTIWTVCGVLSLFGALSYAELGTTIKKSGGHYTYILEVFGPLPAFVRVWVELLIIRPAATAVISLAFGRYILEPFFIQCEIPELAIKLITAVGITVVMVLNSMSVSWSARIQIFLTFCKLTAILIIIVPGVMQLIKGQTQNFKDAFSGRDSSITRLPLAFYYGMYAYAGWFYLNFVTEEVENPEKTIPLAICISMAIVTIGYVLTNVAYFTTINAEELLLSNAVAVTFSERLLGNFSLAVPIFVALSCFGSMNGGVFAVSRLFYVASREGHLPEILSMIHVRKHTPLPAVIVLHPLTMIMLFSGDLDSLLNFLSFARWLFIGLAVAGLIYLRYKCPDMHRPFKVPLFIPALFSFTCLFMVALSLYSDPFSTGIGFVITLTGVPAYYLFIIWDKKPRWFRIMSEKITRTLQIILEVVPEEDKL

[2] = biological target: T1, Cystine/glutamate transporter (Homo sapiens); assay: Inhibition of XCT in IL-3 CpG-A-activated human plasma at 10 uM assessed as decrease in pDC activation
[3] = biological target: T1, Cystine/glutamate transporter (Homo sapiens); assay: Inhibition of XCT in CpG-A-activated human plasmacytoid dendritic cells at 10 uM assessed as decrease in ENPP2 expression; format: cell-based; details: Plasmacytoid dendritic cell
[4] = biological target: T1, Cystine/glutamate transporter (Homo sapiens); assay: Inhibition of XCT in CpG-A-activated human plasmacytoid dendritic cells at 10 uM assessed as decrease in MYO1E expression; format: cell-based; details: Plasmacytoid dendritic cell
[5] = biological target: T1, Cystine/glutamate transporter (Homo sapiens); assay: Inhibition of XCT in CpG-A-activated human plasmacytoid dendritic cells at 5 uM assessed as decrease in TNF production; format: cell-based; details: Plasmacytoid dendritic cell
[6] = biological target: T1, Cystine/glutamate transporter (Homo sapiens); assay: Inhibition of XCT in CpG-A-activated human plasmacytoid dendritic cells at 1 uM assessed as decrease in TNF production; format: cell-based; details: Plasmacytoid dendritic cell
[7] = biological target: T1, Cystine/glutamate transporter (Homo sapiens); assay: Inhibition of XCT in CpG-A-activated human plasmacytoid dendritic cells at 5 uM assessed as decrease in kynurenine uptake; format: cell-based; details: Plasmacytoid dendritic cell
[8] = biological target: T1, Cystine/glutamate transporter (Homo sapiens); assay: Inhibition of XCT in CpG-A-activated human plasmacytoid dendritic cells at 5 uM assessed as decrease in IFN-alpha production; format: cell-based; details: Plasmacytoid dendritic cell
[9] = biological target: T1, Cystine/glutamate transporter (Homo sapiens); assay: Inhibition of XCT in CpG-A-activated human plasmacytoid dendritic cells at 1 uM assessed as decrease in IFN-alpha production; format: cell-based; details: Plasmacytoid dendritic cell
[10] = biological target: Large neutral amino acids transporter small subunit 1 (Homo sapiens) (UniProt Q01650); assay: Inhibition of human LAT1 at 100 uM relative to control
Chain of Large neutral amino acids transporter small subunit 1 (Homo sapiens) (Q01650 whole entry): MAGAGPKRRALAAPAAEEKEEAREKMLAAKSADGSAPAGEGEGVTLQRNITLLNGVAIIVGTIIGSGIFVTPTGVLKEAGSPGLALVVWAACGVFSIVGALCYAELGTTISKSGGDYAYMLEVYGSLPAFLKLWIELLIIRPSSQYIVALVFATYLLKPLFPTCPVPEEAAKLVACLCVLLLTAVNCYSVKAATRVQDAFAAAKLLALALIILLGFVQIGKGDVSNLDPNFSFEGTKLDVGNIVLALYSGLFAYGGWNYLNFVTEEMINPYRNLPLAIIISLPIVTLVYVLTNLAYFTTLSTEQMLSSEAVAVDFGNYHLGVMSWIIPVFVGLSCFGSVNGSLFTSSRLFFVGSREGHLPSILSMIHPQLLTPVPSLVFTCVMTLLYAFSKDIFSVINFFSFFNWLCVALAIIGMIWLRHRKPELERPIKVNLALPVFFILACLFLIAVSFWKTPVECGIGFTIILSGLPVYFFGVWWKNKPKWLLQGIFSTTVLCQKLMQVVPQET

[11] = biological target: Glyceraldehyde-3-phosphate dehydrogenase (Homo sapiens) (UniProt P04406); assay: Inhibition of GAPDH in CpG-A-stimulated human plasmacytoid dendritic cells at 10 uM assessed as reduction in TNF production; format: cell-based; details: Plasmacytoid dendritic cell
Chain of Glyceraldehyde-3-phosphate dehydrogenase (Homo sapiens) (P04406 2-335 limits assumed): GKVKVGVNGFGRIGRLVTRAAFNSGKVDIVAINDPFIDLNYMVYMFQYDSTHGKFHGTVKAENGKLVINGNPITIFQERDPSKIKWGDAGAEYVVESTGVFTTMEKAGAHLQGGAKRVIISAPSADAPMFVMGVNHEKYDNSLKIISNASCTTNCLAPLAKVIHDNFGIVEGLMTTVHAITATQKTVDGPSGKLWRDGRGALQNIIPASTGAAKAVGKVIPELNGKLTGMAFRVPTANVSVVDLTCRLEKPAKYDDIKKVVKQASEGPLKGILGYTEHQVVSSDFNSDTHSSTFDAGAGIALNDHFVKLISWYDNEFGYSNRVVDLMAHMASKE

[12] = biological target: Glyceraldehyde-3-phosphate dehydrogenase (Homo sapiens) (UniProt P04406); assay: Inhibition of GAPDH in CpG-A-stimulated human plasmacytoid dendritic cells at 10 uM assessed as reduction in secreted lactate levels; format: cell-based; details: Plasmacytoid dendritic cell
[13] = biological target: Glyceraldehyde-3-phosphate dehydrogenase (Homo sapiens) (UniProt P04406); assay: Inhibition of GAPDH in CpG-A-stimulated human plasmacytoid dendritic cells at 10 uM assessed as reduction in overall protein synthesis; format: cell-based; details: Plasmacytoid dendritic cell
[14] = biological target: Glyceraldehyde-3-phosphate dehydrogenase (Homo sapiens) (UniProt P04406); assay: Inhibition of GAPDH in CpG-A-stimulated human plasmacytoid dendritic cells at 10 uM assessed as reduction in TNF production in presence of 1 uM oligomycin; format: cell-based; details: Plasmacytoid dendritic cell
[15] = biological target: Glyceraldehyde-3-phosphate dehydrogenase (Homo sapiens) (UniProt P04406); assay: Inhibition of GAPDH in CpG-A-stimulated human plasmacytoid dendritic cells at 10 uM assessed as reduction in IFNa-alpha production; format: cell-based; details: Plasmacytoid dendritic cell
[16] = biological target: Glyceraldehyde-3-phosphate dehydrogenase (Homo sapiens) (UniProt P04406); assay: Inhibition of GAPDH in CpG-A-stimulated human plasmacytoid dendritic cells at 10 uM assessed as reduction in IFN-alpha production in presence of 1 uM oligomycin; format: cell-based; details: Plasmacytoid dendritic cell
[17] = biological target: T2, Signal transducer and activator of transcription 5A (Homo sapiens) (UniProt P42229); assay: Inhibition of STAT5 in IL-3 and CpG-A-stimulated human plasmacytoid dendritic cells at 10 to 50 nM assessed as decrease in TNF production in presence of 100 uM sulfasalazine; format: cell-based; details: Plasmacytoid dendritic cell, dose 10-50 nM
T2 sequence (whole entry): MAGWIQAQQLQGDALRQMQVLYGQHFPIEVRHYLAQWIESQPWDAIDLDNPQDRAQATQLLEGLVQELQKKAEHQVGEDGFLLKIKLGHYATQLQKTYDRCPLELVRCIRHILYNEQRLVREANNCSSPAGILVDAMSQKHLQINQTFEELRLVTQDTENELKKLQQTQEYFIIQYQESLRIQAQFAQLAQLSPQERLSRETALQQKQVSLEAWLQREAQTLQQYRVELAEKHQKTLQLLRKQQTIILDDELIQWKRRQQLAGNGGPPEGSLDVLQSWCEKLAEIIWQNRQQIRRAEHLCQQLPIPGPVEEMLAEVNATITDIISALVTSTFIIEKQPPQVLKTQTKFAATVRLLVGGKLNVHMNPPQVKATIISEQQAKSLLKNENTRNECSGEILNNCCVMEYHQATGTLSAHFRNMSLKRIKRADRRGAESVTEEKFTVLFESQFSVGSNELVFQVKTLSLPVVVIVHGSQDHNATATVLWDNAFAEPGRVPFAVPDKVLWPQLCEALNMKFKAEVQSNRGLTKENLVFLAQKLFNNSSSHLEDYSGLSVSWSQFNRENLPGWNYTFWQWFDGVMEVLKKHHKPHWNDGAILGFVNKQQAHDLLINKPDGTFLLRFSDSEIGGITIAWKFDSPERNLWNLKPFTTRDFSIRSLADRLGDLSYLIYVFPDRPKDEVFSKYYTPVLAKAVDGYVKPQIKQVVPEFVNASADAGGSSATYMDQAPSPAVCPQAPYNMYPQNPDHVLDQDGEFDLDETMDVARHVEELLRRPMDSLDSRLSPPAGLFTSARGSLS

[18] = biological target: T2, Signal transducer and activator of transcription 5A (Homo sapiens); assay: Inhibition of STAT5 in IL-3 and CpG-A-stimulated human plasmacytoid dendritic cells at 10 to 50 nM assessed as decrease in IFN-alpha production in presence of 100 uM sulfasalazine; format: cell-based; details: Plasmacytoid dendritic cell, dose 10-50 nM
mTORC1 (Homo sapiens) [19] = biological target: T3, mTORC1 (Homo sapiens) (UniProt P42345+Q8N122+Q9BVC4); details: Plasmacytoid dendritic cell, dose 250.0 nM
T3 sequence (Q8N122 whole entry, looked up, other chains not shown): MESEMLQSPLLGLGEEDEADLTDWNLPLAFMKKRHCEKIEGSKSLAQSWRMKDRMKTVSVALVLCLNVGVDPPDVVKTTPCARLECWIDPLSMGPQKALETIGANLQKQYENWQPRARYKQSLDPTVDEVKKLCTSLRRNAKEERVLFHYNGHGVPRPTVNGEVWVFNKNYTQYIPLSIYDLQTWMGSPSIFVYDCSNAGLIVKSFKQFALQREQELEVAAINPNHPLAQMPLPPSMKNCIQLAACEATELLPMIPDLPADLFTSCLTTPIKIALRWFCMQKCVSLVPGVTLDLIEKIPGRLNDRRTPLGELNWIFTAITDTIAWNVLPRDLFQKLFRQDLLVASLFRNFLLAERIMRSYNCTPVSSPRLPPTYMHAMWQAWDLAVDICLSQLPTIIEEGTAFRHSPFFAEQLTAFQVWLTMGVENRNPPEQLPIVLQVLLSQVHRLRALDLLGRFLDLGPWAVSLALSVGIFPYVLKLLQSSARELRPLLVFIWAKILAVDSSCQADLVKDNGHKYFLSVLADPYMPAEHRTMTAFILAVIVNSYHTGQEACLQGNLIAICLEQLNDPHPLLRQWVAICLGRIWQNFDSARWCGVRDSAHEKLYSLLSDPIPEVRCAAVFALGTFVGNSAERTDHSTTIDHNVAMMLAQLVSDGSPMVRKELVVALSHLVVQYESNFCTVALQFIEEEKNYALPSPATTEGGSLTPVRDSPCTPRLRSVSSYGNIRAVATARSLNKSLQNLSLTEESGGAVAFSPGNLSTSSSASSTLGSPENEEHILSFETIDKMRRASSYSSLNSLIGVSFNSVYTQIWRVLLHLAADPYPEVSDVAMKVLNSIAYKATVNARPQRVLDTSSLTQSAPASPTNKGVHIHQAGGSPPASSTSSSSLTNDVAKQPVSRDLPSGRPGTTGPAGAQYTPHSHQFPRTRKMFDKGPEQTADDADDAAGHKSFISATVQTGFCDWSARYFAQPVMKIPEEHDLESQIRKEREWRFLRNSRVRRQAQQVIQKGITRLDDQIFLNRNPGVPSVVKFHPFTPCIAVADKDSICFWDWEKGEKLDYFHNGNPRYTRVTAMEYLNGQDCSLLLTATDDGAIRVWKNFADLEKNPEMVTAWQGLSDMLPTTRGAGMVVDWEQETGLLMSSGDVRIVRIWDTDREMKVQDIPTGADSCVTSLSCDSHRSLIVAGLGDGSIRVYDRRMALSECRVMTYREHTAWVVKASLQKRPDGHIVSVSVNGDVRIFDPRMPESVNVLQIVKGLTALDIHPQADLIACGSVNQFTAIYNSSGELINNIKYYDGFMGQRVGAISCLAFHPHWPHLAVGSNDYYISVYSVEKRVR
T3 sequence (Q9BVC4 whole entry, looked up, other chains not shown): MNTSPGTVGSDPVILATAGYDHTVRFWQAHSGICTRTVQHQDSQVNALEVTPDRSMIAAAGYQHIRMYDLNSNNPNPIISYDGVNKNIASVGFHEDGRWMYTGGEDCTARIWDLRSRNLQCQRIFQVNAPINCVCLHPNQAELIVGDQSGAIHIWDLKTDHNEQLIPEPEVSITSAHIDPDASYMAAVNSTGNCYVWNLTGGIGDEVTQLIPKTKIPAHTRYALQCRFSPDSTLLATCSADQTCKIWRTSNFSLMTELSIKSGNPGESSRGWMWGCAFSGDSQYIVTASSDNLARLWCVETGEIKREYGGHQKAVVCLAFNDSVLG
Description: Inhibition of mTORC1 in CpG-A-stimulated human plasmacytoid dendritic cells at 250 nM assessed as decrease in lactate release

mTORC1 (Homo sapiens) [20] = biological target: T3, mTORC1 (Homo sapiens); details: Plasmacytoid dendritic cell, dose 20.0 nM
Description: Inhibition of mTORC1 in CpG-A-stimulated human plasmacytoid dendritic cells at 20 nM assessed as decrease in lactate release

[21] = biological target: Tyrosine-protein kinase JAK2 (Homo sapiens) (UniProt O60674); assay: Inhibition of JAK2 in IL3- and CpG-A-activated human plasmacytoid dendritic cells at 20 nM assessed as decrease in MYO1E/IFNA2 expression; format: cell-based; details: Plasmacytoid dendritic cell
Chain of Tyrosine-protein kinase JAK2 (Homo sapiens) (O60674 whole entry): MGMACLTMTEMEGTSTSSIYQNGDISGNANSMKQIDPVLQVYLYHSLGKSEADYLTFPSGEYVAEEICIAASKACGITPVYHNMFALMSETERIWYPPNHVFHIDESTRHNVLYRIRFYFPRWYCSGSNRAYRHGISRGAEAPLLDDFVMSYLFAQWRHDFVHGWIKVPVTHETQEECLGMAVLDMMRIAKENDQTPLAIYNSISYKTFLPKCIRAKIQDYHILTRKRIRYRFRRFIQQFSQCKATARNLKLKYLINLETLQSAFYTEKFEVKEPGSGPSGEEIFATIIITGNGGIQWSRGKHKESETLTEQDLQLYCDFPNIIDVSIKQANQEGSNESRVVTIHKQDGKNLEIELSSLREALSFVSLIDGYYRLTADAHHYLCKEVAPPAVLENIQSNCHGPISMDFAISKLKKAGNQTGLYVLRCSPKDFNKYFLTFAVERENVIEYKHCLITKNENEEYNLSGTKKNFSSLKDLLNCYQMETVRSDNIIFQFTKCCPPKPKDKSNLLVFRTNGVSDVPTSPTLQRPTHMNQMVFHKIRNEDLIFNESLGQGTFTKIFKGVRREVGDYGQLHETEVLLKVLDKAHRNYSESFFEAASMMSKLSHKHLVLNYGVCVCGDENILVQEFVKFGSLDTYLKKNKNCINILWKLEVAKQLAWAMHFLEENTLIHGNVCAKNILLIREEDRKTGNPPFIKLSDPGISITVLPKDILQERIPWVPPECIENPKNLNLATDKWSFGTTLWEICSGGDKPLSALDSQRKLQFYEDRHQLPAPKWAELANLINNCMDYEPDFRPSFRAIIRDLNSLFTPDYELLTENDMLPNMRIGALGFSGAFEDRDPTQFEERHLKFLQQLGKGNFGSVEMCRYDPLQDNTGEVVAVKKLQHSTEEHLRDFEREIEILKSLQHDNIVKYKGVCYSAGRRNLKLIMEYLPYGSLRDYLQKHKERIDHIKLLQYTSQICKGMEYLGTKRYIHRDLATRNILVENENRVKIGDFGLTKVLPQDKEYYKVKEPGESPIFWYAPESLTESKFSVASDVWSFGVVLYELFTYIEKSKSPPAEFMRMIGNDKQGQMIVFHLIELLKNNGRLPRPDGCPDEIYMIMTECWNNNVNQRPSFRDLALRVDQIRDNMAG

[22] = biological target: Tyrosine-protein kinase JAK2 (Homo sapiens) (UniProt O60674); assay: Inhibition of JAK2 in TLR9-activated human plasmacytoid dendritic cells at 20 nM assessed as decrease in CpG-A stimulated SLC7A11 expression; format: cell-based; details: Plasmacytoid dendritic cell
[23] = biological target: Tyrosine-protein kinase JAK2 (Homo sapiens) (UniProt O60674); assay: Inhibition of JAK2 in IL3- and CpG-A-activated human plasmacytoid dendritic cells at 20 nM assessed as decrease in ENPP2/IFNA2 expression; format: cell-based; details: Plasmacytoid dendritic cell
[24] = tested on: Plasmacytoid dendritic cell; assay: Inhibition of mTORC1/mTORC2 in CpG-A and IL-3-activated human plasmacytoid dendritic cells at 200 ng/mL assessed as decrease in IFN-alpha production; format: cell-based
[25] = tested on: Plasmacytoid dendritic cell; assay: Inhibition of mTORC1/mTORC2 in CpG-A and IL-3-activated human plasmacytoid dendritic cells at 200 ng/mL assessed as decrease in TNF production; format: cell-based
[26] = tested on: Plasmacytoid dendritic cell; assay: Inhibition of mTORC1/mTORC2 in IL-3 and CpG-A-activated human plasmacytoid dendritic cells at 200 nM assessed as decrease in decrease in MYO1E/IFNA2 expression; format: cell-based
[27] = tested on: Plasmacytoid dendritic cell; assay: Inhibition of mTORC1/mTORC2 in TLR9-activated human plasmacytoid dendritic cells at 1 uM assessed as decrease in CpG-A stimulated SLC7A11 expression; format: cell-based
[28] = tested on: Plasmacytoid dendritic cell; assay: Inhibition of mTORC1/mTORC2 in CpG-A and IL-3-activated human plasmacytoid dendritic cells at 200 ng/mL assessed as decrease in SLC3A2 expression; format: cell-based
[29] = tested on: Plasmacytoid dendritic cell; assay: Inhibition of mTORC1/mTORC2 in IL-3 and CpG-A-activated human plasmacytoid dendritic cells at 200 nM assessed as decrease in decrease in ENPP2/IFNA2 expression; format: cell-based
[30] = tested on: Plasmacytoid dendritic cell; assay: Inhibition of mTORC1/mTORC2 in CpG-A and IL-3-activated human plasmacytoid dendritic cells at 200 ng/mL assessed as decrease in SLC7A5 expression; format: cell-based

CCOc1ccccc1-n1c(C(C)N2CCN(C(=O)COc3ccc(Cl)cc3)CC2)nc2ccccc2c1=O (configuration not stated)
inhibition [1]: Active | inhibition [2]: Active | inhibition [3]: Active | inhibition [4]: Active | inhibition [5]: Active | inhibition [6]: Active | inhibition [7]: Active | inhibition [8]: Active | inhibition [9]: Active

N#Cc1ccc(Cl)cc1/N=c1\ssnc1Cl
inhibition [10]: > 90%

CC(C)[C@H]1CC[C@@]2(CO2)[C@H]2C(=O)OCC(C(=O)O)=C[C@H]12
inhibition [11]: Active | inhibition [12]: Active | inhibition [13]: Active | inhibition [14]: Active | inhibition [15]: Active | inhibition [16]: Active

CN(C)CCNc1nc2ccccc2c2[nH]c3ccccc3c12
inhibition [17]: Active | inhibition [18]: Active

N#Cc1cc(Br)ccc1/N=c1\ssnc1Cl
inhibition [10]: > 90%

N#Cc1c(Br)cccc1/N=c1\ssnc1Cl
inhibition [10]: > 90%

CO[C@H]1CC2CC[C@@H](C)[C@@](O)(O2)C(=O)C(=O)N2CCCC[C@H]2C(=O)O[C@H]([C@H](C)C[C@@H]2CC[C@@H](O)[C@H](OC)C2)CC(=O)[C@H](C)/C=C(\C)[C@@H](O)[C@@H](OC)C(=O)[C@H](C)C[C@H](C)/C=C/C=C/C=C/1C
inhibition (mTORC1 (Homo sapiens) [19]): Active | inhibition (mTORC1 (Homo sapiens) [20]): Active | inhibition [21]: Active | inhibition [22]: Active | inhibition [23]: Active

CCC(=O)N1CCN(c2ccc(-n3c(=O)ccc4cnc5ccc(-c6cnc7ccccc7c6)cc5c43)cc2C(F)(F)F)CC1
inhibition [24]: Active | inhibition [25]: Active | inhibition [26]: Active | inhibition [27]: Active | inhibition [28]: Active | inhibition [29]: Active | inhibition [30]: Active
